Results: patent US20240226049A1, “METHODS OF TREATMENT USING BEMPEDOIC ACID” (Esperion Therapeutics, Inc., priority 2023, published 2024)

Tested on: primary prevention patients unable to tolerate recommended doses of statins
Experiment: CLEAR OUTCOMES primary prevention subgroup (Example 2): investigator-reported adverse events and safety laboratory findings
Type: in vivo
Method: The rationale, design and methods of the CLEAR Outcomes trial is described in Example 1. The trial was conducted at 1250 sites in 32 countries and designed by the Cleveland Clinic Coordinating Center for Clinical Research (C5Research) and an academic Executive Committee in collaboration with the sponsor. The protocol was approved by ethics committees at participating sites and all patients provided written informed consent before enrollment. A contract research organization collected the data which were transferred to C5Research at completion of the trial whose statisticians conducted the analyses described herein. An independent Data Monitoring Committee monitored the trial.
Primary prevention patients 18 to 85 years of age with an LDL cholesterol ≥100 mg/dL with clinical features placing them at high risk for a first cardiovascular event were eligible. Criteria for high cardiovascular risk included risk scores, such as the Reynolds Risk Score and the SCORE project (Ridker et al., Development and validation of improved algorithms for the assessment of global cardiovascular risk in women: the Reynolds Risk Score, JAMA. 2007 Feb. 14; 297(6):611-9; Ridker et al., C-reactive protein and parental history improve global cardiovascular risk prediction. The Reynolds Risk Score for men, Circulation. 2008; 118: 2243-2251; European Guidelines on CVD Prevention in Clinical Practice. 2016. Eur J Prev Cardiol. 2016 July; 23(11):NP1-NP96), a coronary artery calcium score >400 Agatston units (AU) or presence of either type 1 or 2 diabetes in women aged >65 years or men older than 60 years.
Investigators were responsible for assessing the patient for statin intolerance. Patients had to report statin intolerance due to an adverse effect that started or increased during statin therapy and resolved or improved after statin therapy was discontinued. Entry criteria required inability to tolerate 2 or more statins at any dose or 1 statin and unwillingness to attempt a second statin or advised by a physician not to attempt taking a second statin. Both the patient and site investigator were required to provide written confirmation that the patient was statin intolerant and aware of the benefits of statins to reduce the risk of cardiovascular events, including death, and acknowledge that many patients who are unable to tolerate a statin can tolerate a different statin or dose. Patients could be enrolled if they tolerated a very low average daily statin dose defined as rosuvastatin <5 mg, atorvastatin <10 mg, simvastatin <10 mg, lovastatin <20 mg, pravastatin <40 mg, fluvastatin <40 mg, or pitavastatin <2 mg. Other background lipid-lowering therapies were permitted, including ezetimibe, niacin, bile acid resins, fibrates, and/or proprotein convertase subtilisin kexin type 9 (PCSK9) inhibitors.
Eligible patients entered a 4-week run-in period during which patients were treated with single-blind placebo. If patients were intolerant to placebo treatment or if adherence was <80% by tablet count, they were not eligible for randomization. Patients who successfully completed the run-in period were randomly assigned in a 1:1 ratio to receive a 180 mg oral dose of bempedoic acid or matching placebo, administered daily. During the trial, LDL cholesterol and hsCRP results were masked. Beginning 6 months after randomization, the central laboratory notified the investigator, who remained blinded to treatment assignment, if the patient's LDL cholesterol level was ≥25% higher than baseline. Repeat testing was performed after the patient was counseled about diet and encouraged to take all medications as prescribed. The patient returned for a repeat fasting blood lipid profile to confirm whether the LDL cholesterol value exceeded the threshold criteria. If confirmed, the patient's treatment regimen for LDL cholesterol lowering could be adjusted, per standard of care and local practice. […]

[1] = primary prevention safety population
[2] = primary prevention safety population, N = 2104
[3] = primary prevention, after 6 months
[4] = primary prevention, after 12 months

CC(C)(CCCCCC(O)CCCCCC(C)(C)C(=O)O)C(=O)O [Bempedoic Acid, Bempedoic acid]
New onset diabetes in patients with pre-diabetes at baseline, % [1]: (8.4) %
New onset diabetes in patients without diabetes at baseline, % [1]: (6.4) %
Adjudicated tendon rupture, % [2]: 1.4%
Adverse event leading to drug discontinuation, % [2]: 9.9%
Any treatment emergent adverse event, % [2]: 84.8%
Atrial fibrillation, % [2]: 2.5%
Cholelithiasis, % [2]: 2.5%
Discontinuation of treatment due to myalgia, % [2]: 1.4%
Elevated hepatic enzymes, % [2]: 4.5%
Gout, % [2]: 2.6%
Hyperuricemia, % [2]: 12.1%
Hypoglycemia, % [2]: 4.9%
Malignancies, % [2]: 4.0%
Muscular disorders, % [2]: 12.8%
Myalgias, % [2]: 4.2%
Neurocognitive disorders, % [2]: 0.4%
Renal impairment, % [2]: 10.3%
Serious treatment emergent adverse event, % [2]: 19.9%
Tendinopathies, % [2]: 1.8%
Change from baseline in creatinine levels, mean (SD) [3]: 0.05 (0.19) mg/dL
Change from baseline in uric acid level, mean (SD) [3]: 0.80 (1.1)^ mg/dL
Patients with creatinine >1.5 mg/dL, % [3]: (3.3%)
Patients with uric acid level >8.5 mg/dL, % [3]: (10.8%)
Change from baseline in glycated hemoglobin level (%), patients with diabetes at baseline [4]: 0.03(0.96) %
Change from baseline in glycated hemoglobin level (%), patients without diabetes at baseline [4]: 0.02(0.26) %
Change from baseline in glycated hemoglobin level (%) (primary prevention, after 12 months, not a prespecified safety measure): 0.03 (0.79) %
Aspartate aminotransferase level >3 times ULN, % (primary prevention, at any visit): 3.5%
Creatine kinase levels >10x ULN (single occurrence), % (primary prevention, at any visit, N = 2104): 0.2%
Alanine aminotransferase level >3 times ULN, % (primary prevention, at any visit, repeated and confirmed): 2.1%
Worsening hyperglycemia, % (primary prevention, in patients with diabetes at baseline): (21.6) %
